Experimental data as given in paper PMC9138090, “Study on the Neuroprotective, Radical-Scavenging and MAO-B Inhibiting Properties of New Benzimidazole Arylhydrazones as Potential Multi-Target Drugs for the Treatment of Parkinson’s Disease” (Antioxidants, 2022).
Entries after “also recorded” stand apart in the source; their conditions may differ.

How the values were obtained:
[1] = Superoxide scavenging, non-enzymatic KO2/NBT assay; details: 100 µM; text says enzymatic assay
Protocol: Superoxide radicals scavenging activity (non-enzymatic assay): 1 mL PBS, pH 7.4 contains 0.04 mmol/L NBT and the tested hydrazone in the concentrations indicated on the figures. No drug was added to the control samples. One minute after the addition of 20 μL of KO2 dissolved in DMSO, the absorbance at 560 nm was measured.
The results from both assays have been presented as a percentage of the control sample.
The potency of the compounds selected as the most promising from the cell model systems and hMAOB inhibitory studies was estimated against enzymatically (xanthine/XO system) and non-enzymatically (KO2/NBT) produced superoxide radicals (Figure 7). In the xanthine-xanthine oxidase system the generation of O2^−^● is a result of an enzymatic reaction. The molecular mechanism of action of the XO enzyme is associated with catalysation of the reaction of oxidation of hypoxanthine and xanthine and generation of uric acid. During the process of reoxidation of the enzyme, the molecular oxygen acts as an electron acceptor and the formation of physiologically important ROS, such as the superoxide radical (O2^−^●) and hydrogen peroxide (H2O2), has been observed. In the potassium superoxide-containing systems, superoxide radical generation is due to the direct addition of the KO2 to the water sample solution. […]

[2] = Fe(II)-induced degradation of 2-deoxyribose (TBA-RS); details: 80 µmol/L, 2-deoxyribose 0.5 mmol/L
Protocol: (§1) The classical method of determining the TBA-reactive substances at 532 nm as described by Asakawa and Matsushita has been used. Two groups of measurement compositions named controls and samples were prepared in phosphate buffer (K2HPO4/KH2PO4, pH 7.4) for each of the used substrates. Both of them contained equivalent concentrations of lecithin (1 mg/mL) or 2-deoxyribose (0.5 mmol/L) and FeCl2 (0.1 mmol/L). In the controls, the tested hydrazones have been omitted and in the samples the effect of the newly designed compounds at the concentrations indicated below the figures has been determined. The obtained samples were incubated at 37 °C for 30 min. The reaction was stopped, and after adding 0.5 mL 2.8% trichloroacetic acid and 0.5 mL of thiobarbituric acid, the samples were heated in boiling water for 20 min. The lecithin containing samples were centrifuged at 3000 rpm for 20 min and the supernatant was aspired out. The results have been presented as a percentage of the control sample, treated only with ferrous iron where we expected maximum oxidative damage under the described conditions.

SH-SY5Y cells = assay: H2O2-induced oxidative stress model in SH-SY5Y cells; format: cell-based, human; details: for cell viability protection vs. H2O2-treatment: 50 µM, 90 min pre-incubation, H2O2 1 mM 15 min; for protective effect in H2O2-induced oxidative stress model (in words): 1, 10, 50 µM
Protocol: SH-SY5Y cells were seeded in 96-well plates at a density of 3.5 × 10^4/well and allowed to attach at the wells’ bottom overnight. […] Afterwards, the SH-SY5Y cells were washed with phosphate-buffered saline (PBS) to remove the extracellular amount of the test compounds. […] Then, the contents of all wells were changed with culture medium. After 24 h, the amount of attached viable cells was evaluated by MTT assay. […] Rasagiline and melatonin (Sigma-Aldrich Chemie GmbH) were used as reference compounds because of their well-established neuroprotective activity. […] The toxic mechanisms of hydrogen peroxide include the generation of reactive hydroxyl radicals and formation of products which could damage cellular lipids, proteins and DNA. […] For comparison, the effects of two compounds with well established antioxidant activity—rasagiline and melatonin—were also evaluated.

[3] = Fe(II)-induced oxidative damage of lecithin (TBA-RS); details: 90 µmol/L
Protocol: as §1

rat brain synaptosomes = assay: 6-OHDA-induced neurotoxicity, GSH level; format: cell-based; details: 10 µM pretreatment, 6-OHDA 150 mmol/L 1 h
Protocol: Synaptosomes were prepared from brains of adult male Wistar rats. The brains were homogenized in 10 volume of cold buffer 1, containing 5 mM HEPES and 0.32 M sucrose (pH = 7.4). The brain homogenate was centrifuged twice at 1000× g for 5 min at 4 °C. The supernatant was collected and centrifuged 3 times at 10,000× g for 20 min at 4 °C. The pellet was re-suspended in ice-cold buffer 1. The synaptosomes were isolated by using Percoll reagent to prepare the gradient. Synaptosomes were re-suspended and incubated in buffer 2, containing 290 mM NaCl, 0.95 mM MgCl2 × 6H2O, 10 mM KCl, 2.4 mM CaCl2 × H2O, 2.1 mM NaH2PO4, 44 mM HEPES, and 13 mM D-glucose. Incubations were performed in a 5% CO2 + 95% O2 atmosphere. The content of synaptosomal protein was determined according to the method of Lowry et al. using bovine serum albumin as a standard.
The metabolism and oxidation of dopamine cause reactive oxygen radicals and reactive quinones to be produced, which could lead to neurotoxicity and neurodegeneration. The synaptosomes were incubated with the compounds (10 µM) for 30 min and then 6-hydroxydopamnine (150 mmol/L) was used to induce neurotoxicity. […] After 1 h, they were centrifuged on a microcentrifuge for 1 min at 15,000 rpm. The precipitates were gently mixed with buffer B and glucose and centrifuged for a second time at 15,000 rpm for 1 min. After the second wash, buffer B and glucose were added to the precipitates.
In the presented experiments, an in vitro assessment of the possible antioxidant and neuroprotective effects of the newly synthetized compounds was performed in a model of 6-OHDA induced toxicity in rat brain synaptosomes. 6-OHDA is a neurotoxicant that structurally resembles dopamine and can be used in different in vivo and in vitro models for neurotoxicity. This model resembles the histological, biochemical, and physiological characteristics of neurodegenerative diseases such as Parkinson’s and Alzheimer’s disease. […] However, their uptake into brain synaptosomes is similar among primates and rodents and they are suitable in vitro models for PD. The main mechanism of 6-OHDA toxicity includes induction of oxidative stress. It undergoes auto-oxidation or metabolic degradation to p-quinone and produces hydrogen peroxide, superoxide, and hydroxyl radicals. The process causes lipid peroxidation, protein oxidation, and DNA oxidation and finally results in oxidative stress and mitochondrial dysfunction. Rat brain synaptosomes were pretreated with compounds 3e, 3h, 3i, 3m, melatonin, and rasagiline (10 μM); after that, the samples were subjected to 6-OHDA (150 mmol/L, 1 h). The protective effects were evaluated by measurement of synaptosomal viability (MTT-test) and GSH levels (Figure 3).

Structure (SMILES) | increase of absorbance compared to the controls [1] | antioxidant effect on Fe(II) induced deoxyribose degradation (in words) [2] | cell viability protection vs. H2O2-treatment (SH-SY5Y cells) | protective effect in H2O2-induced oxidative stress model (in words) (SH-SY5Y cells) | sample/control absorbance ratio (% of the control), lecithin peroxidation ([3]; lecithin 1 mg/mL, FeCl2 0.1 mmol/L) | restoration of GSH level vs. 6-OHDA treatment (rat brain synaptosomes) | lecithin peroxidation effect compared with 3a (in words) [3]
O=C(CCn1c(=S)n(CCC(=O)NN=Cc2ccccc2O)c2ccccc21)NN=Cc1ccccc1O [3e, 3,3′-(2-Thioxo-1H-benzo[d]imidazole-1,3(2H)-diyl)bis(N′-(2-hydroxybenzylidene)propanehydrazide)] | 1.5 times |  |  |  |  |  | 
O=C(CCn1c(=S)n(CCC(=O)NN=Cc2cccc(O)c2O)c2ccccc21)NN=Cc1cccc(O)c1O [3h, 3,3′-(2-Thioxo-1H-benzo[d]imidazole-1,3(2H)-diyl)bis(N′-(2,3-dihydroxybenzylidene)propanehydrazide)] |  | stronger than the reference melatonin and similar to Trolox; also recorded: better protection effect than the reference melatonin, and a similar effect to the antioxidant Trolox | 79% | even more pronounced than those of melatonin and rasagiline | around 40% | 62% | 
O=C(CCn1c(=S)n(CCC(=O)NN=Cc2ccc(O)cc2O)c2ccccc21)NN=Cc1ccc(O)cc1O [3i, 3,3′-(2-Thioxo-1H-benzo[d]imidazole-1,3(2H)-diyl)bis(N′-(2,4-dihydroxybenzylidene)propanehydrazide)] | 2.5 times |  | 80% | even more pronounced than those of melatonin and rasagiline |  |  | statistically identical effect to 3a
